From patent US8993628B2, “Synthetic ligands selective for LXRβ over LXRα, identification and methods of use thereof” (City of Hope, priority 2007, dated 2015)
Entries after “also recorded” stand apart in the source; their conditions may differ.

What was measured:
ABCG1 = assay: Gene expression analysis of endogenous LXR target gene ABCG1 in H4 cells; assay type: cell-based, human
Protocol: (§1) The effect of various concentrations of LXRβ-selective compounds on endogenous LXR target genes in H4 cells was examined. […] Induction of ABCG1, another lipid-transporter regulated by LXR, was also observed in H4 cells treated with T0901317, DY136 and DY142. […] Gene expression analysis was conducted to measure the endogenous LXR target genes. Briefly, cells were plated in a 6-well plate at the following densities/well: 0.35 million H4 cells (DMEM, 10% FBS), 0.5 million CCF-STTG1 (RPMI, 15% FBS), 1 million SH-SY5Y (RPMI, 15% FBS), or 1 million THP (RPMI, 15% FBS+100 nM TPA for 3 days to differentiate). The cells were treated the next day in serum-free DMEM supplemented with insulin, transferrin, and selenium and apoA1 (10 μg/ml). The media was harvested 24 hours later, mixed with a protease inhibitor cocktail (Roche), debris was pelleted (14000 g, 5 min.) and the supernatant saved for Aβ measurements (below). The cells were then rinsed with PBS and lysed with Trizol reagent. RNA isolation and cDNA synthesis (OmniScript, Qiagen) were as per manufacturer's protocol. Gene expression analysis was done in triplicate with 30 ng of cDNA and the following primer-sets: ABCA1, ABCG1, SREBP1c, GAPDH, HPRT (either SYBR Green or FAM-labeled LUX primers (Invitrogen). None of these primers produce primer-dimers or amplified genomic DNA (all primer-sets are intron spanning). The signal for each target gene was normalized to GAPDH and/or HPRT.

human LXRβ [1] = target: T1, human LXRβ (Homo sapiens, UniProt P55055); assay: GAL4-LXRβ reporter gene assay in transiently transfected CV-1 cells; assay type: cell-based; details: reporter gene assay, CV-1 cells; FIG. 2 left; receptor subtype not stated
T1 construct: EC50; other: reporter gene assay, CV-1 cells
T1 sequence (P55055 222-460): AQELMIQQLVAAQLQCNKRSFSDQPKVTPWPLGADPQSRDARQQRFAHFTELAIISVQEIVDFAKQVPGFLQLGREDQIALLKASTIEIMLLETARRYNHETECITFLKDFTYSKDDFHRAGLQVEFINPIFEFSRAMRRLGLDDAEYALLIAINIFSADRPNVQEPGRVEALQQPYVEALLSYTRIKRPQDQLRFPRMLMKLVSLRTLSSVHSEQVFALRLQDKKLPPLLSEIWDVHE
Protocol: (§2) Several potential LXR ligands were synthesized as described in Example 5. These compounds were assayed for activity on human LXRα and LXRβ using high-throughput reporter gene assays (e.g., reporter gene assays using Biomek automated workstation) in transiently transfected CV-1 cells.
(§3) In the reporter gene assay CV-1 cells were grown in Dulbecco's Modified Eagle's medium supplemented with 10% resin-charcoal stripped fetal bovine serum, 50 U/ml penicillin G and 50 μg/ml streptomycin sulfate (DMEM-FBS) at 37° C. in 5% CO2. One day prior to transfection, cells were plated to 50-80% confluence using phenol-red free DMEM-FBS. Cells were transiently transfected by lipofection with DOTAP. A GAL4 luciferase reporter construct (300 ng/10^5 cells) and cytomegalovirus driven expression vectors for GAL4-LXRα or GAL4-LXRβ (20-50 ng/10^5 cells) were added along with CMX-βgal (500 ng/10^5 cells) as an internal control. After 2 hours the liposomes were removed and cells treated for approximately 45 hours with phenol-red free DMEM-FBS containing the indicated LXR ligands. After exposure to ligand, the cells were harvested and assayed for luciferase and β-galactosidase activity. All points were assayed in triplicate. […] Use of reporter gene assays are known in the art and described for example in Sambrook et al., Molecular Cloning: A Laboratory Manual, 2nd Ed., Cold Spring Harbor Laboratory Press, Cold Spring Harbor, N.Y.

human LXRβ [2] = assay: as above; assay type: cell-based; details: for LXRβ-selectivity factor, fold activation of LXRβ/LXRα: 10 μM, CV-1 reporter gene assays; for activation of LXRβ: reporter gene assay, CV-1 cells
Protocol: as §2, §3

ABCA1 = assay: Gene expression analysis of endogenous LXR target gene ABCA1 in H4 cells; assay type: cell-based, human; details: for induction of ABCA1 expression: H4 neuroglioma cells, compared with T0901317
Protocol: as §1

SREBP1c = assay: Gene expression analysis of endogenous LXR target gene SREBP1c in H4 cells; assay type: cell-based, human; details: compared with T0901317
Protocol: as §1, with “Gene expression analysis was done in triplicate with 30 ng of cDNA and the following primer-sets: ABCA1, ABCG1, SREBP1c, GAPDH, HPRT (either SYBR Green or FAM-labeled LUX primers (Invitrogen). None of these primers produce primer-dimers or amplified genomic DNA (all primer-sets are intron spanning). The signal for each target gene was normalized to GAPDH and/or HPRT.” left out

apoE = assay: Gene expression analysis of apoE in H4 cells; assay type: cell-based, human; details: H4 neuroglioma cells
LXR = details: cited from earlier work
human LXRα = assay: GAL4-LXRα reporter gene assay in transiently transfected CV-1 cells; assay type: cell-based
Protocol: as §2
In the reporter gene assay CV-1 cells were grown in Dulbecco's Modified Eagle's medium supplemented with 10% resin-charcoal stripped fetal bovine serum, 50 U/ml penicillin G and 50 μg/ml streptomycin sulfate (DMEM-FBS) at 37° C. in 5% CO2. One day prior to transfection, cells were plated to 50-80% confluence using phenol-red free DMEM-FBS. Cells were transiently transfected by lipofection with DOTAP. A GAL4 luciferase reporter construct (300 ng/10^5 cells) and cytomegalovirus driven expression vectors for GAL4-LXRα or GAL4-LXRβ (20-50 ng/10^5 cells) were added along with CMX-βgal (500 ng/10^5 cells) as an internal control. After 2 hours the liposomes were removed and cells treated for approximately 45 hours with phenol-red free DMEM-FBS containing the indicated LXR ligands. After exposure to ligand, the cells were harvested and assayed for luciferase and β-galactosidase activity. All points were assayed in triplicate. […]

[3] = test system: primary neuronal and astrocyte cultures; details: cited from earlier work
[4] = test system: human H4 neuroglioma cells; assay: Quantification of total cellular cholesterol in H4 cells (GC-MS); assay type: cell-based; details: 1 μM, 24 hours
Protocol: In order to confirm the effects of LXR activation on Aβ production in human cells, human H4 neuroglioma cells were treated with the pan-LXR agonist T0901317 (1 μM) for 24 hours and measured the amount of total cellular cholesterol remaining in the cells and the amount of Aβ40 secreted into the media (FIG. 1). As expected, T0901317 reduced both intracellular cholesterol levels as well as secreted Aβ40. […] Also as expected, T0901317 induced a greater than 50-fold increase in ABCA1 expression in H4 cells (FIG. 2). […] For quantification of total cellular cholesterol, H4 cells are seeded in 12-well plates at 70,000 per well. Cells are treated with DMSO (vehicle) or T0901317 in serum-free DMEM for 24 hours in presence of 10 μg/ml apoA1. Cells were lysed with 1N NaOH in 90% ethanol and 10 μM of 5α-cholestane as an internal control tracer. Cholesterol esters were hydrolyzed by incubation at 65° C. for 2 hours. Equal volume of water is added to the samples, and extracted twice with 2 volumes of hexane.

[5] = test system: transgenic mice expressing human APPswe; details: one-week treatment; cited from earlier work
[6] = test system: mouse Neuro2A cells expressing human APPswe; details: cited from earlier work
C57BL/6 mice = details: 1 week of treatment; cited from earlier work
Aβ40 = Aβ40 secreted into the media of H4 cells (ELISA kit); assay type: cell-based, human; details: 1 μM, 24 hours
Protocol: In order to confirm the effects of LXR activation on Aβ production in human cells, human H4 neuroglioma cells were treated with the pan-LXR agonist T0901317 (1 μM) for 24 hours and measured the amount of total cellular cholesterol remaining in the cells and the amount of Aβ40 secreted into the media (FIG. 1). As expected, T0901317 reduced both intracellular cholesterol levels as well as secreted Aβ40. […] Also as expected, T0901317 induced a greater than 50-fold increase in ABCA1 expression in H4 cells (FIG. 2). […] To quantify Aβ production, cells were cultured as described above (gene expression analysis). Media was added to the diluent Buffer provided with the kit and assayed according to the manufacturer's instructions (Biosource).

Row | EC50 (human LXRβ [1]) | SMILES | induction of ABCG1 (ABCG1) | LXRβ-selectivity factor, fold activation of LXRβ/LXRα (human LXRβ [2]) | induction of ABCA1 expression (ABCA1) | induction of SREBP1c (SREBP1c) | ApoE expression (apoE) | association of LXR with a coactivator peptide derived from SRC-1 (LXR) | activation of LXRβ (human LXRβ [2]) | activation of LXRα (human LXRα) | cholesterol efflux [3] | intracellular cholesterol levels (total cellular cholesterol) [4] | Aβ40 and Aβ42 in the brain [5] | Aβ production [6] | hypertriglyceridemia (C57BL/6 mice) | increase in ABCA1 expression (ABCA1; H4 cells) | secreted Aβ40 (Aβ40)
1 | 1000 to 3000 nM | O=C(O)Cc1cccc(OCCCN(Cc2cccc(C(F)(F)F)c2)CC(c2ccccc2)c2ccccc2)c1 [DY142, (3-{3-[(2,2-Diphenyl-ethyl)-(3-trifluoromethyl-benzyl)-amino]-propoxy}-phenyl)-acetic acid] | observed | 6.5 | expected activation; also recorded: to a level nearly that of the pan-agonist T0901317 | little effect; also recorded: only half that observed with T0901317 | increased by all three ligands, although the effects were slightly lower |  |  |  |  |  |  |  |  |  | 
2 |  | O=C(O)Cc1cccc(OCCCN(Cc2cccc(C(F)(F)F)c2Cl)CC(c2ccccc2)c2ccccc2)c1 [GW3965] |  | 2.2 |  |  |  | promotes association | activated | activated |  |  |  |  |  |  | 
3 |  | O=S(=O)(c1ccccc1)N(CC(F)(F)F)c1ccc(C(O)(C(F)(F)F)C(F)(F)F)cc1 [T0901317] | observed | 1.7 |  |  | increased |  | activated | activated | enhanced cholesterol efflux | reduced | significant decrease | decreased | induces severe hypertriglyceridemia | greater than 50 fold | reduced
4 | 1000 to 3000 nM | O=C(O)Cc1cccc(OCCCN(Cc2cccc(C(F)(F)F)c2F)CC(c2ccccc2)c2ccccc2)c1 [DY136, (3-{3-[(2,2-Diphenyl-ethyl)-(2-fluoro-3-trifluoromethyl-benzyl)-amino]-propoxy}-phenyl)-acetic acid] | observed | 3.4 | expected activation; also recorded: to a level nearly that of the pan-agonist T0901317 | little effect; also recorded: only half that observed with T0901317 | increased |  |  |  |  |  |  |  |  |  | 
